# Results as given in US10392422B2, “Macrocyclic broad spectrum antibiotics” (priority 2014, dated 2019).
# Where two headings read alike, the source gives them in different places.
# Key:
# Assay in all cases: MIC, broth micro-dilution technique (CLSI)
# [1] = tested on: Methicillin Resistant Staphylococcus aureus strain USA 300 (NRS384); assay type: cell-based; conditions: for MIC: Staphylococcus aureus, 22 h, read-out: MIC (μg/mL) S. aureus
# Method: (§1) In vitro antimicrobial activity of each compound was determined by measuring minimal inhibitor concentrations (MICs) using the broth micro-dilution technique as approved by the Clinical and Laboratory Standards Institute (CLSI) (Methods for Dilution Antimicrobial Susceptibility Tests for Bacteria that Grow Aerobically; Approved Standard—Eighth Edition. CLSI document M07-A8. Wayne, Pa.: Clinical and Laboratory Standards; 2009). Antibacterial activity was measured against three strains of bacteria: a Methicillin Resistant Staphylococcus aureus strain USA 300 (NRS384); a MRSA COL (NRS100), another Methicillin Resistant Staphylococcus aureus strain; and a strain of Escherichia coli MC4100 harboring the IMP4213, which results in increased outer-membrane permeability (B Martin and Silhavy T. Imp/OstA is required for cell envelope biogenesis in Escherichia coli. (2002) Molecular Microbiology, 45(5), 1289-1302). Cells were inoculated onto plates of Trypyticase Soy Agar or Luria Agar respectively and grown at 35° C. for 20 hours. Inocula suspensions were prepared by scraping cells into 1 ml of testing media (cation adjusted Mueller Hinton Broth supplemented with 0.002% v/v Tween-80) and diluting to a final OD600 nm of 0.01.
# (§2) Test compounds were prepared in DMSO at a concentration of 10 mg/ml. These compound stocks were diluted into testing media at a concentration of 64 μg/ml and serial 2-fold dilutions were made in the same media, in 96-well U bottom microtiter dishes, for a total of 10 compound concentrations (Table 1). In modified protocols (Table 2), compound stocks were diluted into testing media at a concentration of 4 μg/mL and serial 2-fold dilutions were made in the same media, in 96-well U bottom microtiter dishes, for a total of 10 compound concentrations. Inocula suspensions were added to the 2-fold serial dilutions of test compounds to a final density of OD OD600 nm of 0.0005 and incubated at 35° C. for 22 hours. […] The results from the protocol starting from a concentration of 64 µg/mL are listed in Table 1 and the results from the modified protocol are shown in Table 2.
# [2] = tested on: Escherichia coli MC4100 harboring the IMP4213; assay type: cell-based; conditions: for MIC: Escherichia coli, 22 h
# Method: as §1, §2
# MRSA COL (NRS100) = assay type: cell-based, Staphylococcus aureus; conditions: for MIC: Staphylococcus aureus, 22 h, read-out: MIC (μg/mL) (COL)
# Method: as §1, §2
# [3] = Table 1 protocol: serial 2-fold dilutions starting from 64 μg/ml, 35° C., 22 hours
# [4] = read-out: MIC (μg/mL) E. coli, Table 1 protocol: serial 2-fold dilutions starting from 64 μg/ml, 35° C., 22 hours
# [5] = Table 2 modified protocol: serial 2-fold dilutions starting from 4 μg/mL, 35° C., 22 hours
# [6] = read-out: MIC (μg/mL) E. coli, Table 2 modified protocol: serial 2-fold dilutions starting from 4 μg/mL, 35° C., 22 hours
SMILES,"MIC [1, 3]","MIC [2, 4]",MIC (MRSA COL (NRS100); [3]),MIC [1],MIC (MRSA COL (NRS100)),"MIC [2, 6]",also measured
C[C@H](NC(=O)[C@@H]1Cc2ccc(O)c(c2)-c2cc(ccc2O)[C@H](N(C)C(=O)[C@H](CCCCN)NC(=O)c2ccc(-c3ccc(Cl)cc3)cc2)C(=O)N[C@@H](C)C(=O)N1)C(=O)CCc1c[nH]cn1 [Compound 132],32 µg/mL,> 64 µg/mL,8 µg/mL,,,,
CCCCCCCCCC(=O)N[C@@H](CC(N)=O)C(=O)N(C)[C@@H]1C(=O)N[C@@H](C)C(=O)N[C@H](C(=O)N[C@@H](C)C(C)=O)Cc2ccc(OCCN)c(c2)-c2cc1ccc2OCCN.O=CO [Compound 266],,,,,,,"MIC (μg/mL) S. aureus [1, 5]: 4 µg/mL; MIC (μg/mL) E. coli [2, 5]: >4 µg/mL; MIC (μg/mL) (COL) (MRSA COL (NRS100); [5]): 1.5 µg/mL"
CCCCCCCCCCNCCC(=O)N[C@@H](CCCCN)C(=O)N(C)[C@@H]1C(=O)N[C@@H](C)C(=O)N[C@H](C(=O)N[C@@H](C)C(=O)COC(C)=O)Cc2ccc(O)c(c2)-c2cc1ccc2OCCN [Compound 116],,13 µg/mL,,0.35 µg/mL,0.063 µg/mL,,
CCCCCCCCCCNCCS(=O)(=O)N[C@@H](CCN)C(=O)N(C)[C@@H]1C(=O)N[C@@H](C)C(=O)N[C@H](C(=O)N[C@@H](C)C(C)=O)Cc2ccc(O)c(c2)-c2cc1ccc2O [Compound 218],,> 64 µg/mL,,0.35 µg/mL,0.13 µg/mL,,
C[C@@H]1NC(=O)[C@@H](N(C)C(=O)[C@H](CCCCN)NC(=O)c2ccc(-c3ccc(Cl)cc3)cc2)c2ccc(O)c(c2)-c2cc(ccc2O)C[C@@H](C(=O)N[C@@H](C)C(=O)C(=O)N[C@@H]2CCNC2=O)NC1=O [Compound 142],64 µg/mL,16 µg/mL,16 µg/mL,,,,
COCC(=O)[C@H](C)NC(=O)[C@@H]1Cc2ccc(O)c(c2)-c2cc(ccc2OCCN)[C@H](N(C)C(=O)[C@H](CCCCN)NC(=O)c2ccc(-c3ccc(Cl)cc3)cc2)C(=O)N[C@@H](C)C(=O)N1 [Compound 195],2.8 µg/mL,2 µg/mL,0.38 µg/mL,,,,
CCCCCCCCCCNCCC(=O)N[C@@H](CCCCN)C(=O)N(C)[C@@H]1C(=O)N[C@@H](C)C(=O)N[C@H](C(=O)N[C@@H](C)C(C)=O)Cc2ccc(OC3O[C@H](CO)[C@@H](O)[C@H](O)[C@H]3N)c(c2)-c2cc1ccc2OC1O[C@H](CO)[C@@H](O)[C@H](O)[C@H]1N (stereo partly drawn) [Compound 340],,,,> 4 µg/mL,2 µg/mL,> 4 µg/mL,
C[C@@H]1NC(=O)[C@@H](N(C)C(=O)[C@H](CCCCN)NC(=O)c2ccc(-c3ccc(Cl)cc3)cc2)c2ccc(O)c(c2)-c2cc(ccc2O)C[C@@H](C(=O)N[C@@H](C)C(=O)c2ccn[nH]2)NC1=O [Compound 235],4 µg/mL,32 µg/mL,2 µg/mL,,,,
CCCCCCCCCNCCCS(=O)(=O)N[C@@H](CCCCN)C(=O)N(C)[C@@H]1C(=O)N[C@@H](C)C(=O)N[C@H](C(=O)N[C@@H](C)C(C)=O)Cc2ccc(O)c(c2)-c2cc1ccc2O [Compound 217],2 µg/mL,> 64 µg/mL,0.75 µg/mL,,,,
CCCCc1ccc(-c2ccc(C(=O)N[C@@H](CCCCN)C(=O)N(C)[C@@H]3C(=O)N[C@@H](C)C(=O)N[C@H](C(=O)N[C@@H](C)C(C)=O)Cc4ccc(OCCN)c(c4)-c4cc3ccc4OCCN)cc2)cc1 [Compound 272],,,,,,0.25 µg/mL,"MIC [1, 5]: 0.13 µg/mL; MIC (MRSA COL (NRS100); [5]): 0.063 µg/mL"
CCCCc1ccc(-c2ccc(C(=O)N[C@@H](CCCN)C(=O)N(C)[C@@H]3C(=O)N[C@@H](C)C(=O)N[C@H](C(=O)NS(=O)(=O)C(F)(F)F)Cc4ccc(OCCN)c(c4)-c4cc3ccc4OCCN)cc2)cc1 [Compound 338],,,,,,0.63 µg/mL,"MIC [1, 5]: 3 µg/mL; MIC (MRSA COL (NRS100); [5]): 2.5 µg/mL"
CCCCCCCCCCNCCC(=O)N[C@@H](CCCCN)C(=O)N(C)[C@@H]1C(=O)N[C@@H](C)C(=O)N[C@H](C(=O)N[C@@H](C)C(=O)COC(C)=O)Cc2ccc(O)c(c2)-c2cc1ccc2O [Compound 200],2 µg/mL,64 µg/mL,0.5 µg/mL,,,,
CCCCCCCCCCCC(=O)N[C@@H](CCN)C(=O)N(C)[C@@H]1C(=O)N[C@@H](C)C(=O)N[C@H](C(=O)O)Cc2ccc(OCCN)c(c2)-c2cc1ccc2OCCN [Compound 304],,,,0.5 µg/mL,0.13 µg/mL,0.047 µg/mL,
CC(=O)OCC(=O)CNC(=O)[C@@H]1Cc2ccc(O)c(c2)-c2cc(ccc2O)[C@H](N(C)C(=O)[C@H](CCCCN)NC(=O)c2ccc(-c3ccc(Cl)cc3)cc2)C(=O)N[C@@H](C)C(=O)N1 [Compound 254],,,,,,> 4 µg/mL,"MIC [1, 5]: 4 µg/mL; MIC (MRSA COL (NRS100); [5]): 2 µg/mL"
CCCCc1ccc(-c2ccc(C(=O)N[C@@H](CCCN)C(=O)N(C)[C@@H]3C(=O)N[C@@H](C)C(=O)N[C@H](C(=O)NS(C)(=O)=O)Cc4ccc(OCCN)c(c4)-c4cc3ccc4OCCN)cc2)cc1 [Compound 337],,,,2 µg/mL,0.75 µg/mL,0.047 µg/mL,
CCCCc1ccc(-c2ccc(C(=O)N[C@@H](CN)C(=O)N(C)[C@@H]3C(=O)N[C@@H](C)C(=O)N[C@H](C(=O)N[C@@H](C)B4O[C@@H]5C[C@@H]6C[C@@H](C6(C)C)[C@]5(C)O4)Cc4ccc(OCCN)c(c4)-c4cc3ccc4OCCN)cc2)cc1 [Compound 317],,0.13 µg/mL,,0.13 µg/mL,0.063 µg/mL,,
CCCCCCCCCC(=O)N[C@@H](CCN)C(=O)N(C)[C@@H]1C(=O)N[C@@H](C)C(=O)N[C@H](C(=O)O)Cc2ccc(OCCN)c(c2)-c2cc1ccc2OCCN [Compound 306],,,,3 µg/mL,1 µg/mL,0.25 µg/mL,
CCCCCCCCCCCCCC(=O)N[C@@H](CCCN)C(=O)N(C)[C@@H]1C(=O)N[C@@H](C)C(=O)N[C@H](C(=O)O)Cc2ccc(OCCN)c(c2)-c2cc1ccc2OCCN [Compound 303],,,,0.13 µg/mL,0.023 µg/mL,0.023 µg/mL,
CC(=O)[C@H](C)NC(=O)[C@@H]1Cc2ccc(O)c(c2)-c2cc(ccc2OCCN2CCN(C)CC2)[C@H](N(C)C(=O)[C@H](CCCCN)NC(=O)c2ccc(-c3ccc(Cl)cc3)cc2)C(=O)N[C@@H](C)C(=O)N1 [Compound 332],64 µg/mL,64 µg/mL,8 µg/mL,,,,
C[C@H](NC(=O)[C@@H]1Cc2ccc(O)c(c2)-c2cc(ccc2O)[C@H](N(C)C(=O)[C@H](CCCCN)NC(=O)c2ccc(-c3ccc(Cl)cc3)cc2)C(=O)N[C@@H](C)C(=O)N1)C(=O)/C=C/c1cc[nH]n1 [Compound 129],16 µg/mL,> 64 µg/mL,4 µg/mL,,,,
COP(=O)(O)CC(=O)[C@H](C)NC(=O)[C@@H]1Cc2ccc(O)c(c2)-c2cc(ccc2O)[C@H](N(C)C(=O)[C@H](CCCCN)NC(=O)c2ccc(-c3ccc(Cl)cc3)cc2)C(=O)N[C@@H](C)C(=O)N1 [Compound 167],,,,16 µg/mL,4 µg/mL,,MIC ([2]; read-out: MIC (μg/mL) E. coli): > 64 µg/mL
C[C@@H]1NC(=O)[C@@H](N(C)C(=O)[C@H](CCCCN)NC(=O)c2cccc(-c3ccc(Cl)cc3)c2)c2ccc(OCCN)c(c2)-c2cc(ccc2OCCN)C[C@@H](C(=O)O)NC1=O [Compound 282],,,,> 4 µg/mL,2 µg/mL,1 µg/mL,
C[C@@H]1NC(=O)[C@@H](N(C)C(=O)[C@H](CCCCN)NC(=O)c2ccc(-c3ccc(Cl)cc3)cc2)c2cc(c3oc(CN)cc3c2)-c2cc(ccc2O)C[C@@H](C(=O)O)NC1=O [Compound 211],,2 µg/mL,,11 µg/mL,2 µg/mL,,
CCCCCCCCCCNCCC(=O)N[C@@H](CCCCN)C(=O)N(C)[C@@H]1C(=O)N[C@@H](C)C(=O)N[C@H](C(=O)N[C@@H](C)C(=O)c2nnn[nH]2)Cc2ccc(O)c(c2)-c2cc1ccc2OCCN [Compound 193],0.5 µg/mL,8 µg/mL,0.13 µg/mL,,,,
